Measured values taken from patent publication US12612413B2, “Heteroaryl compounds as inhibitors of programmed necrosis pathway, composition and method using the same” (ACCRO BIOSCIENCE INC., priority 2020, dated 2026).

Test system: HT-29 cells
Assay: HT-29 cell viability (necroptosis) assay
Format: cell-based
Details: Homo sapiens, TNF-α (40 ng/mL), Smac mimetic (100 nM), z-VAD (20 μM), 40 h; for EC50: from survival rate curve; for viability at 20 µM: compound at 20 μM, read-out: HT-29(20 μM) Survival
Method: Human colon cancer HT-29 cells were used in a necroptosis assay. For this assay, HT-29 cells were added to 96-well plates. The compounds at different concentrations (0.3, 1.0, 3.0, 10.0, 20.0 μM) were then preprocessed for two hours. TNF-α (40 ng/mL), Smac mimetic (100 nM) and z-VAD (20 μM) were added, and the mixture was incubated for 40 h. Quantitative analysis of cell viability was conducted. DMSO pretreatment group was used as a negative control. Concentration for 50% of maximal effect was calculated according to the curve of the survival rate measured at different concentrations. FIG. 1 depicts the EC50 curves of compound A16.

Compound	EC50 [nM]	viability at 20 µM [%]
O=S1(=O)C=C(O[C@H]2CCOC2)c2cc3nccc(Nc4ccc5scnc5c4)c3cc21 [Compound A117]	390	–
CC1=CS(=O)(=O)c2cc3c(Nc4cc(N)ccc4C)ccnc3cc21 [Compound A78]	–	10.5
CC1=CS(=O)(=O)c2cc3c(Nc4ccc(O)cc4C)ccnc3cc21 [Compound A80]	–	14.4
CC1=C(C)S(=O)(=O)c2cc3c(Nc4n[nH]c5ccc(F)cc45)ccnc3cc21 [Compound A84]	–	18.1
O=S1(=O)CC2(CCCO2)c2cc3nccc(Nc4ccc5scnc5c4)c3cc21 (stereo not shown) [Compound B27]	2200	–
CC(C)OC1=Cc2cc3nccc(Nc4ccc5scnc5c4)c3cc2S1(=O)=O [Compound A15]	500	–
CCC1(C)C(C)c2cc3nccc(Nc4ccc5scnc5c4)c3cc2S1(=O)=O (stereo not shown) [Compound B5]	–	39.2
CC1=Cc2cc3nccc(Nc4n[nH]c(C)c4C)c3cc2S1(=O)=O [Compound A38]	–	37.6
CC1(C)C(=O)c2c(cc3c(Nc4ccc5scnc5c4)ccnc3c2C2CC2)S1(=O)=O [Compound B12, 8-(benzo[d]thiazol-5-ylamino)-4-cyclopropyl-2,2-dimethylthieno[2,3-g]quinolin-3(2H)-one 1,1-dioxide]	–	10.3
CC1=Cc2cc3nccc(Nc4ccc(O)cc4C)c3cc2S1(=O)=O [Compound A51]	–	16.1
NCCOC1=CS(=O)(=O)c2cc3c(Nc4ccc5scnc5c4)ccnc3cc21 [Compound A110]	2080	–
CC1=Cc2cc3nccc(Nc4ccc(O)c(Cl)c4)c3cc2S1(=O)=O [Compound A55]	–	25.6
CC1=Cc2cc3nccc(Nc4ccc5c(c4)CN(C)CC5)c3cc2S1(=O)=O [Compound A42]	–	23.1
O=S1(=O)c2cc3c(Nc4ccc5scnc5c4)ccnc3cc2OCC12CC2 [Compound B25]	–	70.7
O=S1(=O)C=C(C2CC2)c2cc3nccc(Nc4ccn5ccnc5c4)c3cc21 [Compound A104]	12000	–
CC1=Cc2cc3nccc(Nc4ccc5c(c4)C(=O)NCC5)c3cc2S1(=O)=O [Compound A43]	–	48.8

Compound	EC50 [nM]	viability at 20 µM [%]
Cc1cc(C2=CS(=O)(=O)c3cc4c(Nc5ccc6scnc6c5)ccnc4cc32)n(C)n1 [Compound A32]	1200	–
O=S1(=O)C=C(C2CC2)c2cc3nccc(Nc4ccc5nn[nH]c5c4)c3cc21 [Compound A92]	420	–
CC(=O)Nc1ccc(C)c(Nc2ccnc3cc4c(cc23)S(=O)(=O)C(C)=C4)c1 [Compound A48]	–	7.8
COc1ccc(C)c(Nc2ccnc3cc4c(cc23)S(=O)(=O)C(C)=C4)c1 [Compound A47]	–	17.5
O=S1(=O)c2cc3c(Nc4ccc5scnc5c4)ccnc3cc2OCC12CCC2 [Compound B26]	–	72.6
Cc1ccc(O)cc1Nc1ccnc2cc3c(cc12)S(=O)(=O)C=C3 [Compound A107]	1060	–
O=S1(=O)C=C(c2ccc(O)cc2)c2cc3nccc(Nc4ccc5scnc5c4)c3cc21 [Compound A24]	500	–
CC(C)C1=Cc2cc3nccc(Nc4ccc5scnc5c4)c3cc2S1(=O)=O [Compound A5]	760	–
O=S1(=O)C=C(C2CC2)c2cc3nccc(Nc4n[nH]c5ccc(F)cc45)c3cc21 [Compound A90]	–	36
CC1=Cc2cc3nccc(Nc4n[nH]c5ccc(F)cc45)c3cc2S1(=O)=O [Compound A36]	5790	–
CC1(C)C(=O)c2cc3nccc(Nc4cc(O)c(F)cc4F)c3cc2S1(=O)=O [Compound B15]	720	–
O=S1(=O)C=C(c2cn[nH]c2)c2cc3nccc(Nc4ccc5scnc5c4)c3cc21 [Compound A30]	97	–
O=S1(=O)C=C(c2cccnc2)c2cc3nccc(Nc4ccc5scnc5c4)c3cc21 [Compound A27]	490	–
CC1(C)C(O)(C2CC2)c2cc3nccc(Nc4ccc5scnc5c4)c3cc2S1(=O)=O (stereo not shown) [Compound B11]	–	26.2
Nc1cncc(Nc2ccnc3cc4c(cc23)S(=O)(=O)C=C4C2CC2)c1 [Compound A103]	–	46.1
